According to PubChem BioAssay AID330 (DTP/NCI, 2004):
Several values for one entry are separate records, joined by “and”; a condition that tells them apart may be missing. Equal entries are not always repeated. Inconclusive results and toxic doses are left out. Rule for the calls: active = survival T/C of 150% or more; inactive = T/C below 125% in these data.

Test system: P388 leukemia ip, CD2F1 mice, survival T/C
Assay: NCI In Vivo Anticancer Drug Screen. Data for tumor model P388 Leukemia (intraperitoneal) in CD2F1 (CDF1) mice
Settings: endpoint: median survival time, higher = longer survival
In short: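 Mice carrying the transplanted tumor received test compound or vehicle. Survival was recorded in each group, and the value is the treated-group measurement divided by that of the vehicle-treated control group.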

[1] = dose: 50.0 mg/kg/injection, schedule: Q01DX005 (ip), vehicle: Klucel (hydroxypropylcellulose) (HPC)
[2] = dose: 50.0 mg/kg/injection, schedule: Q01DX009 (ip), vehicle: saline with Tween-80
[3] = dose: 100.0 mg/kg/injection, schedule: Q01DX005 (ip), vehicle: Klucel (hydroxypropylcellulose) (HPC)
[4] = dose: 100.0 mg/kg/injection, schedule: Q01DX009 (ip), vehicle: saline with Tween-80
[5] = dose: 200.0 mg/kg/injection, schedule: Q01DX005 (ip), vehicle: Klucel (hydroxypropylcellulose) (HPC)
[6] = dose: 50.0 mg/kg/injection, schedule: Q01DX009 (ip), vehicle: saline
[7] = dose: 100.0 mg/kg/injection, schedule: Q01DX009 (ip), vehicle: saline
[8] = dose: 200.0 mg/kg/injection, schedule: Q01DX009 (ip), vehicle: saline
[9] = dose: 12.5 mg/kg/injection, schedule: Q01DX009 (ip), vehicle: saline
[10] = dose: 25.0 mg/kg/injection, schedule: Q01DX009 (ip), vehicle: saline
[11] = dose: 60.0 mg/kg/injection, schedule: Q01DX005 (ip), vehicle: saline with Tween-80
[12] = dose: 120.0 mg/kg/injection, schedule: Q01DX005 (ip), vehicle: saline with Tween-80
[13] = dose: 240.0 mg/kg/injection, schedule: Q01DX005 (ip), vehicle: saline with Tween-80
[14] = dose: 50.0 mg/kg/injection, schedule: Q01DX009 (ip), vehicle: Klucel (hydroxypropylcellulose) (HPC)
[15] = dose: 100.0 mg/kg/injection, schedule: Q01DX009 (ip), vehicle: Klucel (hydroxypropylcellulose) (HPC)
[16] = dose: 200.0 mg/kg/injection, schedule: Q01DX009 (ip), vehicle: Klucel (hydroxypropylcellulose) (HPC)
[17] = dose: 12.5 mg/kg/injection, schedule: Q01DX005 (ip), vehicle: saline with Tween-80
[18] = dose: 25.0 mg/kg/injection, schedule: Q01DX005 (ip), vehicle: saline with Tween-80
[19] = dose: 50.0 mg/kg/injection, schedule: Q01DX005 (ip), vehicle: saline with Tween-80
[20] = dose: 200.0 mg/kg/injection, schedule: Q01DX005 (ip), vehicle: saline with Tween-80
[21] = dose: 100.0 mg/kg/injection, schedule: Q04DX003 (ip), vehicle: saline with Tween-80
[22] = dose: 200.0 mg/kg/injection, schedule: Q04DX003 (ip), vehicle: saline with Tween-80
[23] = dose: 400.0 mg/kg/injection, schedule: Q04DX003 (ip), vehicle: saline with Tween-80
[24] = dose: 100.0 mg/kg/injection, schedule: Q01DX005 (ip), vehicle: saline with Tween-80
[25] = dose: 50.0 mg/kg/injection, schedule: Q04DX003 (ip), vehicle: saline with Tween-80

Measured: T/C

Cc1ccc(OP(=O)(Oc2ccc(C)cc2)Oc2ccc(C)cc2)cc1.Cc1ccc(OP(=O)(Oc2ccc(C)cc2)Oc2ccc(C)cc2)cc1.Cc1ccc(OP(=O)(Oc2ccc(C)cc2)Oc2ccc(C)cc2)cc1.Cc1ccc(OP(=O)(Oc2ccc(C)cc2)Oc2ccc(C)cc2)cc1.[Co+2].[O-][Cl+3]([O-])([O-])O
inactive: dose: 100.0 mg/kg/injection, schedule: Q01DX001 (ip), vehicle: Klucel (hydroxypropylcellulose) (HPC) 99 % of control | dose: 200.0 mg/kg/injection, schedule: Q01DX001 (ip), vehicle: Klucel (hydroxypropylcellulose) (HPC) 97 % of control | dose: 400.0 mg/kg/injection, schedule: Q01DX001 (ip), vehicle: Klucel (hydroxypropylcellulose) (HPC) 97 % of control

O=C(O)CCC(=O)c1ccc2ccc3cccc4ccc1c2c34
inactive: [1] 102 % of control | [2] 101 % of control | [3] 103 % of control | [4] 115 % of control | [5] 99 % of control

N#C/C(=C\c1ccccn1)c1nc(-c2ccc(Cl)cc2)cs1
inactive: [6] 102 % of control | [7] 92 % of control | [8] 92 % of control

C1=Nc2ccccc2N=Cc2ccccc2NCCNc2ccccc21
inactive: dose: 6.25 mg/kg/injection, schedule: Q01DX009 (ip), vehicle: saline 98 % of control | [9] 101 % of control | [10] 92 % of control

CCOC(=O)CCC[P+](c1ccccc1)(c1ccccc1)c1ccccc1
inactive: dose: 5.33 mg/kg/injection, schedule: Q01DX009 (ip), vehicle: saline with Tween-80 109 % of control | dose: 8.0 mg/kg/injection, schedule: Q01DX009 (ip), vehicle: saline with Tween-80 118 % of control | dose: 12.0 mg/kg/injection, schedule: Q01DX009 (ip), vehicle: saline with Tween-80 109 % of control

Fc1cccc(NC(=S)SCc2ccc(Cl)c(Cl)c2)c1
inactive: dose: 50.0 mg/kg/injection, schedule: Q01DX009 (ip), vehicle: suspension in saline 99 % of control | dose: 100.0 mg/kg/injection, schedule: Q01DX009 (ip), vehicle: suspension in saline 93 % of control | dose: 200.0 mg/kg/injection, schedule: Q01DX009 (ip), vehicle: suspension in saline 109 % of control

CC(O)C(C)(C)S(=O)(=O)CCCc1ccccc1 (centres undefined)
inactive: [11] 107 % of control | [12] 107 % of control | [13] 108 % of control

CCOC(=O)C(CC1=CS(=O)(=O)c2ccc(Cl)cc21)(NC(C)=O)C(=O)OCC
inactive: [14] 96 % of control | [15] 91 % of control | [16] 87 % of control

Nc1ccc(C(OC(=O)c2cc3ccccc3c(Cc3c(O)c(C(=O)OC(c4ccc(N)cc4)(c4ccc(N)cc4)c4ccc(N)cc4)cc4ccccc34)c2O)(c2ccc(N)cc2)c2ccc(N)cc2)cc1
inactive: dose: 6.25 mg/kg/injection, schedule: Q01DX009 (ip), vehicle: saline with Tween-80 117 % of control

C(=N\Nc1nnc(-c2ccccc2)c(-c2ccccc2)n1)/c1cccnc1
inactive: [17] 86 % of control | [18] 96 % of control | [19] 89 % of control | [20] 90 % of control

CC(CN)OS(=O)(=O)O (centres undefined)
inactive: [21] 100 % of control | [22] 100 % of control | [23] 95 % of control

Nc1nc(SCC(=O)O)[nH]c(=O)c1NS(=O)(=O)c1ccccc1
inactive: dose: 60.0 mg/kg/injection, schedule: Q01DX005 (ip), vehicle: Klucel (hydroxypropylcellulose) (HPC) 108 % of control | dose: 120.0 mg/kg/injection, schedule: Q01DX005 (ip), vehicle: Klucel (hydroxypropylcellulose) (HPC) 109 % of control

C/C=C/c1ccccc1N/N=C(\Cl)C(=O)OCC
inactive: dose: 3.75 mg/kg/injection, schedule: Q01DX005 (ip), vehicle: saline with Tween-80 107 % of control | dose: 7.5 mg/kg/injection, schedule: Q01DX005 (ip), vehicle: saline with Tween-80 99 % of control | [17] 99 % of control | dose: 15.0 mg/kg/injection, schedule: Q01DX005 (ip), vehicle: saline with Tween-80 119 % of control | [18] 106 % of control | [19] 118 % of control | [2] 117 % of control

CN(CCN1C(=O)c2cccc3cc([N+](=O)[O-])cc(c23)C1=O)CCN1C(=O)c2cccc3cc([N+](=O)[O-])cc(c23)C1=O
inactive: [19] 98 % of control | [24] 97 % of control | [20] 114 % of control

CCC1CCC2CCOCN2C1 (centres undefined)
inactive: dose: 50.0 mg/kg/injection, schedule: Q01DX005 (ip), vehicle: saline 97 % of control | dose: 100.0 mg/kg/injection, schedule: Q01DX005 (ip), vehicle: saline 94 % of control

Brc1nsc(SSc2nc(Br)ns2)n1
inactive: [1] 103 % of control | [3] 103 % of control | [5] 102 % of control

CCOC(=O)C[n+]1cccc(S(=O)(=O)NC)c1
inactive: [9] 94 % of control | [10] 94 % of control | [6] 93 % of control

O=c1[nH]c(=O)n(-c2cccc3ccccc23)c(=O)n1-c1cccc2ccccc12
inactive: [14] 100 % of control | [15] 108 % of control | [16] 105 % of control

c1ccc2c(c1)[nH]c1cc3ccncc3cc12
inactive: [25] 94 % of control | [21] 91 % of control | [22] 87 % of control

C[NH-].C[NH-].[Cl][Pt+2][Cl]
inactive: [9] 113 % of control

C(=NCCC[Si]12OCCN(CCO1)CCO2)c1ccc(C=NCCC[Si]23OCCN(CCO2)CCO3)cc1
inactive: [1] 95 % of control | [3] 97 % of control | [5] 95 % of control

NC(Cc1ccc(O)cc1)C(=O)OC1CCCCC1 (centres undefined)
inactive: dose: 25.0 mg/kg/injection, schedule: Q04DX003 (ip), vehicle: saline with Tween-80 107 % of control | [25] 110 % of control | [21] 100 % of control | [22] 96 % of control | [23] 95 % of control

CCC(c1ccc(OC)cc1)C(NCC(=O)NNC(=S)Nc1ccccc1)c1ccc(OC)cc1 (centres undefined)
inactive: dose: 100.0 mg/kg/injection, schedule: Q01DX001 (ip), vehicle: saline with Tween-80 92 % of control | dose: 200.0 mg/kg/injection, schedule: Q01DX001 (ip), vehicle: saline with Tween-80 101 % of control | dose: 400.0 mg/kg/injection, schedule: Q01DX001 (ip), vehicle: saline with Tween-80 108 % of control

COc1ccc(CC(N)c2ccc(OC)c(OC)c2)cc1O (centres undefined)
inactive: [11] 114 % of control | [12] 100 % of control | [13] 97 % of control

CN(C)c1ccc(-c2nc(-c3ccccc3)c(-c3ccccc3)[nH]2)cc1
inactive: [2] 104 % of control | [4] 100 % of control | dose: 200.0 mg/kg/injection, schedule: Q01DX009 (ip), vehicle: saline with Tween-80 104 % of control | dose: 400.0 mg/kg/injection, schedule: Q01DX009 (ip), vehicle: saline with Tween-80 106 % of control

ONc1cnc2ccccc2n1
inactive: [1] 103 % of control | [3] 100 % of control | [5] 100 % of control

C/C=C\c1ccc(OC(=O)NC)c(OC)c1
inactive: [11] 100 % of control | [12] 104 % of control | [13] 100 % of control

CC1=NN(c2cccc(S(=O)(=O)O)c2)C(=O)C1N=Nc1cc(Cl)cc(S(=O)(=O)O)c1O.CC1=NN(c2cccc(S(=O)(=O)O)c2)C(=O)C1N=Nc1cc(Cl)cc(S(=O)(=O)O)c1O.[Cr] (centres undefined)
inactive: [6] 111 % of control and 119 % of control | [7] 120 % of control and 122 % of control | [8] 123 % of control | dose: 400.0 mg/kg/injection, schedule: Q01DX009 (ip), vehicle: saline 122 % of control

O=C1NN=C(c2ccccc2)SC1c1ccccc1 (centres undefined)
inactive: [17] 93 % of control | [18] 95 % of control | [19] 90 % of control and 92 % of control | [20] 90 % of control

COC(=O)/C=C1\C=CC=CC12C(C(=O)OC)c1ccccc1C(C(=O)OC)C2C(=O)OC (centres undefined)
inactive: dose: 12.5 mg/kg/injection, schedule: Q01DX009 (ip), vehicle: saline with Tween-80 100 % of control | dose: 25.0 mg/kg/injection, schedule: Q01DX009 (ip), vehicle: saline with Tween-80 99 % of control | [2] 100 % of control

Cc1[nH]nc2c1NC(=O)OC2
inactive: [19] 104 % of control | [24] 104 % of control | [20] 106 % of control
